Results: the NIST ThermoML archive (doi:10.1016/j.fluid.2018.07.022)
± gives the expanded uncertainty stated by the source.

Details: Liquid, Pendant drop shape

[HH] [hydrogen] + O
Details | interfacial tension [mN/m]
298.03 K, 500 kPa | 72.3 ± 1.2
298.03 K, 1000 kPa | 72.9 ± 1.2
298.04 K, 2000 kPa | 73 ± 1.2
298.04 K, 5000 kPa | 72.6 ± 1.2
298.04 K, 7500 kPa | 72.2 ± 1.2
298.04 K, 10100 kPa | 71.9 ± 1.2
298.04 K, 25000 kPa | 70.3 ± 1.2
298.05 K, 3500 kPa | 72.8 ± 1.2
298.05 K, 45200 kPa | 68.7 ± 1.2
298.06 K, 15000 kPa | 71.3 ± 1.2
298.06 K, 20100 kPa | 70.8 ± 1.2
298.06 K, 30100 kPa | 69.8 ± 1.2
298.09 K, 39900 kPa | 69.1 ± 1.2
322.9 K, 1000 kPa | 69.3 ± 1.2
322.98 K, 2000 kPa | 69.3 ± 1.2
322.99 K, 5000 kPa | 68.9 ± 1.2
323 K, 3500 kPa | 69.1 ± 1.2
323 K, 10000 kPa | 68.3 ± 1.2
323 K, 15000 kPa | 67.8 ± 1.2
323 K, 40100 kPa | 65.8 ± 1.1
323.01 K, 20000 kPa | 67.2 ± 1.1
323.01 K, 25000 kPa | 66.8 ± 1.1
323.02 K, 500 kPa | 68.9 ± 1.2
323.02 K, 30100 kPa | 66.5 ± 1.1
372.73 K, 15000 kPa | 59 ± 1
372.74 K, 500 kPa | 59.8 ± 1
372.77 K, 1000 kPa | 59.7 ± 1
372.77 K, 25200 kPa | 58.5 ± 1
372.77 K, 29800 kPa | 58.1 ± 1
372.78 K, 2000 kPa | 59.7 ± 1
372.78 K, 40100 kPa | 57.6 ± 1
372.81 K, 10000 kPa | 59.3 ± 1
372.85 K, 20100 kPa | 58.7 ± 1
372.87 K, 5000 kPa | 59.5 ± 1
448.02 K, 2000 kPa | 44.1 ± 0.8
448.04 K, 1500 kPa | 44 ± 0.8
448.24 K, 5000 kPa | 43.8 ± 0.7
448.28 K, 15000 kPa | 43.4 ± 0.7
448.29 K, 10000 kPa | 43.7 ± 0.7
448.31 K, 25000 kPa | 43.2 ± 0.7
448.31 K, 30100 kPa | 42.9 ± 0.7
448.33 K, 20000 kPa | 43.3 ± 0.7
448.35 K, 40100 kPa | 43.2 ± 0.7
